The pIC50 is the IC50 on a negative log10 scale, so that one unit is a factor of ten.

SMILES strings stand for the structures. pIC50: −log10 of the molar value.

This assay deals with Glutamate receptor 2 (Homo sapiens, UniProt P42262). The assay is described as follows: Inhibition of GluR2 receptor.
Glutamate receptor 2, sequence (P42262 whole entry): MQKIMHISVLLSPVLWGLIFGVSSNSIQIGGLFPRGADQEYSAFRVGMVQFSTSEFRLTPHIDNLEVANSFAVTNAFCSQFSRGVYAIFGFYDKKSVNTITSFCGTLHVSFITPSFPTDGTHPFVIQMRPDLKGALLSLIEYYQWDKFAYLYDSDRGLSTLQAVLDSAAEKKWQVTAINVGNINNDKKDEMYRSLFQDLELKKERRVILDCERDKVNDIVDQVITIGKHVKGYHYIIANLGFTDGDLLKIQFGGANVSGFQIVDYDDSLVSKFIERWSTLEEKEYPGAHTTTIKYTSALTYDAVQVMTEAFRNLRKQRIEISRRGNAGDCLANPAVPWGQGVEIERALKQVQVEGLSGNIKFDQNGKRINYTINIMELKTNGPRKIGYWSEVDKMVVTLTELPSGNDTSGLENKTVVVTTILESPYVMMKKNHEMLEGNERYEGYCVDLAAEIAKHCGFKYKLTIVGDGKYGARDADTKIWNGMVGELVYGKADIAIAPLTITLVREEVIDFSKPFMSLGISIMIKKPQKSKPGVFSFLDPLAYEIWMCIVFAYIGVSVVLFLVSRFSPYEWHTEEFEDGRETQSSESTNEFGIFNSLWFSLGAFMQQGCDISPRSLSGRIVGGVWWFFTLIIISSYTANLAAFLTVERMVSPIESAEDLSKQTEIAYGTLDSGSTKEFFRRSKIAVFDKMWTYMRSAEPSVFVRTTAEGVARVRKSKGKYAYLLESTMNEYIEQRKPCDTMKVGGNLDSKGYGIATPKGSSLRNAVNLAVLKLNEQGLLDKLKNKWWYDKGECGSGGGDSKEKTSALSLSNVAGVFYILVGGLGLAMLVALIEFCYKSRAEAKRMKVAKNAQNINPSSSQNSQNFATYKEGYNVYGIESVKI

Consider `[N-]=[N+]=Nc1cc2[nH]c(=O)c(=O)[nH]c2cc1[N+](=O)[O-]`, for which the pIC50 was 6.00.
The figure for `O=c1[nH]c2cc3no[n+]([O-])c3cc2[nH]c1=O` is 5.12.
